Source: US20230123334A1, “AMINO LIPID COMPOUND, PREPARATION METHOD THEREFOR, AND APPLICATION THEREOF” (SHENZHEN SHENXIN BIOTECHNOLOGY CO., LTD., priority 2020, published 2023)

Legend:
[1] = system: HEK293 cells; assay: Preliminary screening as mRNA vectors, EGFP mRNA transfection of HEK293 cells; format: cell-based; conditions: HEK293 cells, 96-well plates, EGFP mRNA 50 ng per well; percentage of GFP fluorescent cells relative to total number of cells (Hoechst)
In short: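 Screening format: EGFP mRNA transfection (50 ng/well) into HEK293 in 10% FBS-supplemented DMEM. Percent green fluorescent cells, normalised to Hoechst nuclear count, gave the value; Lipofectamine2000 was the reference transfectant.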

[2] = system: HEK293 cells; assay: Preliminary screening as DNA vectors, GFP transfection of HEK293 cells; format: cell-based; conditions: HEK293 cells; lipid/DOPE liposome with 75 ng plasmid DNA (psin-EGFP-IRES-Puro); number of cells expressing GFP divided by total number of nuclei (Hoechst)
In short: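 First, amino lipid and DOPE were vortexed in sodium acetate buffer (pH 5.6) to form liposomes. Next, these were held with 75 ng EGFP plasmid at room temperature for 30 min. Finally, HEK293 cells were added, cultured at 37° C., Hoechst-stained, and GFP+/total nuclei scored by imaging.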

Compound	Absolute mRNA transfection efficiency in HEK293 cells [1] [%]	Absolute DNA transfection efficiency in HEK293 cells [2] [%]
CCCCCCCCCCCCCCCCCCSc1nc(NCCN2CCCCC2)nc(SCCCCCCCCCCCCCC)n1 [Compound S14S18D4]	0.8	2.5
CCCCCCCCCCCCCCSc1nc(NCC2CCN(C)CC2)nc(SCCCCCCCCCCCCCC)n1 [Compound S14S14D10]	1.5	0.9
CCCCCCCCCCCCNc1nc(NCCCCCCC)nc(NCCN2CCCCC2)n1 [Compound N7N12D4]	0.6	0.0
CCCCCCCCCCCCCCSc1nc(NCCN2CCOCC2)nc(SCCCCCCCCCCC)n1 [Compound S11S14D2]	0.0	0.7
CCCCCCCCCCCCN(CCCCCCCCCCCC)c1nc(NCCCCCCCCC)nc(NCCN(C)C)n1 [N9^2N12D1]	4.7	0.0
CCCCCCCCCCCCCNc1nc(NCCCCCCC)nc(NCCN2CCCC2)n1 [Compound N7N13D3]	7.8	0.0
CCCCCCCCCCCSc1nc(NCCN(CC)CC)nc(SCCCCCCCCCCC)n1 [Compound S11S11D7]	0.0	0.0
CCCCCCCCCCCCCCCCSc1nc(NCCN(CC)CC)nc(SCCCCCCCCCCCCCCC)n1 [Compound S15S16D7]	0.4	0.6
CCCCCCCCCCCCCCCCSc1nc(NCCN2CCCCC2)nc(SCCCCCCCCCC)n1 [Compound S10S16D4]	0.8	9.1
CCCCCCCCCCCCCCCCNc1nc(NCCCCCC)nc(NCCN(C)C)n1 [Compound N6N16D1]	0.0	0.4
CCCCCCCCCCCCCCCCCCNc1nc(NCCCCCCCCCCC)nc(NCCCN2CCOCC2)n1 [Compound N11N18D8]	1.2	2.2
CCCCCCCCCSc1nc(NCCN2CCCCC2)nc(SCCCCCCCCC)n1 [Compound S9S9D4]	2.1	14.5
CCCCCCCCCCCCCCCCCCNc1nc(NCCCCCCC)nc(NCCN2CCOCC2)n1 [Compound N7N18D2]	0.0	0.0
CCCCCCCCCCCCCCCNc1nc(NCCCCCCCCCCCCC)nc(NCCN(C)C)n1 [Compound N13N15D1]	1.4	1.5
CCCCCCCCCCCCCCCNc1nc(NCCCCCCCCC)nc(NCCN2CCCCC2)n1 [Compound N9N15D4]	0.6	0.0
CCCCCCCCCCCCN(CCCCCCCCCCCC)c1nc(NCCN(C)C)nc(N(CCCCCCCCCCCC)CCCCCCCCCCCC)n1 [2N12^2N12D1]	0.1	0.4
CCCCCCCCCCCCCCCNc1nc(NCCCCCCCC)nc(NCC2CCN(C)CC2)n1 [Compound N8N15D10]	3.3	3.2
CCCCCCCCCCCCCCCCNc1nc(NCCCCCCCCCCC)nc(NCC2CCN(C)CC2)n1 [Compound N11N16D10]	1.1	0.6
CCCCCCCCCCCCCCCCCCNc1nc(NCCCCCCC)nc(NCC2CCN(C)CC2)n1 [Compound N7N18D10]	73.8	15.6
CCCCCCCCCCCCCCCCCCNc1nc(NCCCCCCCC)nc(NCCN2CCOCC2)n1 [Compound N8N18D2]	7.0	1.7
CCCCCCCCCCCCCCCNc1nc(NCCCCCCCC)nc(NCCCN2CCN(C)CC2)n1 [Compound N8N15D9]	0.1	0.0
CCCCCCCCCCCCCCCCCCSc1nc(NCCN(C)C)nc(SCCCCCCCCCCCCCCCCCC)n1 [Compound S18S18D1]	0.0	0.0
CCCCCCCCCCCCCCCCCCNc1nc(NCCCCCC)nc(NCCN2CCCCC2)n1 [Compound N6N18D4]	0.2	2.0
CCCCCCCCCCCCN(CCCCCCCCCCCC)c1nc(NCCCCCCC)nc(NCCCN2CCN(C)CC2)n1 [N7^2N12D9]	5.4	1.9

Compound	Absolute mRNA transfection efficiency in HEK293 cells [1] [%]	Absolute DNA transfection efficiency in HEK293 cells [2] [%]
CCCCCCCCCCCCN(CCCCCCCCCCCC)c1nc(NCCCCCCC)nc(NCCN2CCOCC2)n1 [N7^2N12D2]	0.9	1.7
CCCCCCCCCCCCNc1nc(NCCCCCCCC)nc(NCCN2CCCCC2)n1 [Compound N8N12D4]	0.0	0.0
CCCCCCCCCCCCNc1nc(NCCCCCCCCC)nc(NCCN2CCCCC2)n1 [Compound N9N12D4]	2.4	0.0
CCCCCCCCCCCCCNc1nc(NCCCCCCCC)nc(NCCN2CCN(C)CC2)n1 [Compound N8N13D5]	0.0	0.0
CCCCCCCCCCCNc1nc(NN)nc(NCCCN2CCN(C)CC2)n1 [Compound N6N11D9]	0.0	0.0
CCCCCCCCCCCCCCCCCCSc1nc(NCCN(C)C)nc(SCCCCCCCCCC)n1 [Compound S10S18D1]	3.5	9.9
CCCCCCCCCNc1nc(NCCCCCCCCC)nc(NCCN2CCCC2)n1 [Compound N9N9D3]	0.2	0.3
CCCCCCNc1nc(NCCCCCC)nc(NCCCN2CCOCC2)n1 [Compound N6N6D8]	0.0	0.0
CCCCCCCCNc1nc(NCCCCCCC)nc(NCCN2CCN(C)CC2)n1 [Compound N7N8D5]	0.0	0.0
CCCCCCCCCCCCCCCNc1nc(NCCCCCCCCCCC)nc(NCCN2CCCC2)n1 [Compound N11N15D3]	2.7	0.3
CCCCCCCCCCCCCCCCCCNc1nc(NCCN2CCCCC2)nc(N(CCCCCCCCCCCC)CCCCCCCCCCCC)n1 [N18^2N12D4]	1.2	0.9
CCCCCCCCCCCSc1nc(NCCCN2CCN(C)CC2)nc(SCCCCCCCCCCC)n1 [Compound S11S11D9]	8.0	4.3
CCCCCCCCCCCCCNc1nc(NCCCCCCCCCCCC)nc(NCCCN(C)C)n1 [Compound N12N13D6]	1.0	0.5
CCCCCCCCCCCCCCCSc1nc(NCCN(CC)CC)nc(SCCCCCCCCCCCC)n1 [Compound S12S15D7]	0.0	1.4
CCCCCCCCCCCCCCCCCCSc1nc(NCCCN(C)C)nc(SCCCCCCCCCCCCCCCCCC)n1 [Compound S18S18D6]	0.5	0.2
CCCCCCCCCCCCCCCCSc1nc(NCCCN2CCN(C)CC2)nc(SCCCCCCCCCCCCCCC)n1 [Compound S15S16D9]	0.5	0.3
CCCCCCCCCCCCCCCCCCSc1nc(NCCN2CCN(C)CC2)nc(SCCCCCCCCCCCC)n1 [Compound S12S18D5]	0.0	0.7
CCCCCCCCNc1nc(NCCCCCCC)nc(NCCN(CC)CC)n1 [Compound N7N8D7]	0.0	0.0
CCCCCCCCCCCCCCCCCCSc1nc(NCCCN2CCOCC2)nc(SCCCCCCCCCCCC)n1 [Compound S12S18D8]	0.0	0.4
CCCCCCCCCCCCCCCCNc1nc(NCCCCCCC)nc(NCCN2CCOCC2)n1 [Compound N7N16D2]	0.1	0.0
CCCCCCCCCCCCCCCCSc1nc(NCCCN2CCOCC2)nc(SCCCCCCCC)n1 [Compound S8S16D8]	4.4	28.6
CCCCCCCCCCCCCCCSc1nc(NCCN(C)C)nc(SCCCCCCCCCCCC)n1 [Compound S12S15D1]	4.1	0.8
CCCCCCCCCCCCCNc1nc(NCCCCCCCC)nc(NCCN2CCOCC2)n1 [Compound N8N13D2]	0.1	0.0
CCCCCCCCCCCCNc1nc(NCCCCCCCC)nc(NCCN(C)C)n1 [Compound N8N12D1]	0.5	0.6
